According to the supplement of paper PMC10307832:

Key:
Test in all cases: relative viability (nuclei count vs DMSO), 5 days (fraction); higher = more cells survive
[1] = compound: COc1cc(-c2nn([C@H]3CC[C@H](N4CCN(C(C)=O)CC4)CC3)c3ncnc(N)c23)ccc1NC(=O)c1cc2ccccc2n1C + CS(=O)(=O)CCNCc1ccc(-c2ccc3ncnc(Nc4ccc(OCc5cccc(F)c5)c(Cl)c4)c3c2)o1 [Lapatinib] (partner 2 µM)
Outline: (§1)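 A single step with final 0.05% Triton X-100, 1% formaldehyde and 1 ug/ml Hoechst fixed the cells and stained nuclei 5 days after treatment. Lung cancer cell lines in 1536-well plates had been treated by pin tool the day after seeding with one drug alone or a fixed anchor-drug dose plus five library-drug doses (not always all listed) in √10 steps, and nuclei were counted on 4× images. Relative viability is the ratio of nuclei in treated wells to nuclei in vehicle wells, taken as the median of duplicate plates.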

[2] = compound: COc1cc(-c2nn([C@H]3CC[C@H](N4CCN(C(C)=O)CC4)CC3)c3ncnc(N)c23)ccc1NC(=O)c1cc2ccccc2n1C + CC(C)C[C@H](NC(=O)[C@H](Cc1ccccc1)NC(=O)c1cnccn1)B(O)O [Bortezomib] (partner 0.002 µM)
Outline: as §1

[3] = compound: COc1cc(-c2nn([C@H]3CC[C@H](N4CCN(C(C)=O)CC4)CC3)c3ncnc(N)c23)ccc1NC(=O)c1cc2ccccc2n1C + CC(=O)c1c(C)c2cnc(Nc3ccc(N4CCNCC4)cn3)nc2n(C2CCCC2)c1=O [Palbociclib] (partner 0.5 µM)
Outline: as §1

Midostaurin + OSI-027 = compound: CO[C@@H]1[C@H](N(C)C(=O)c2ccccc2)C[C@H]2O[C@]1(C)n1c3ccccc3c3c4c(c5c6ccccc6n2c5c31)C(=O)NC4 [Midostaurin] + COc1cccc2cc(-c3nc([C@H]4CC[C@H](C(=O)O)CC4)n4ncnc(N)c34)[nH]c12 [OSI-027] (partner 0.5 µM)
Outline: as §1

[4] = compound: COc1cc(-c2nn([C@H]3CC[C@H](N4CCN(C(C)=O)CC4)CC3)c3ncnc(N)c23)ccc1NC(=O)c1cc2ccccc2n1C + NC(=O)Nc1cc(-c2cccc(F)c2)sc1C(=O)N[C@H]1CCCNC1 [AZD7762] (partner 0.2 µM)
Outline: as §1

Cell Line	relative viability ([1]; first compound 0.0128 µM)	relative viability ([1]; first compound 0.04048 µM)	relative viability ([1]; first compound 0.128 µM)	relative viability ([1]; first compound 1.28 µM)	relative viability ([2]; first compound 0.0128 µM)	relative viability ([2]; first compound 0.04048 µM)	relative viability ([2]; first compound 0.128 µM)	relative viability ([2]; first compound 1.28 µM)	relative viability ([3]; first compound 0.0128 µM)	relative viability ([3]; first compound 0.04048 µM)	relative viability ([3]; first compound 0.128 µM)	relative viability ([3]; first compound 1.28 µM)	relative viability (Midostaurin + OSI-027; first compound 0.01 µM)	relative viability (Midostaurin + OSI-027; first compound 0.03162 µM)	relative viability (Midostaurin + OSI-027; first compound 0.1 µM)	relative viability (Midostaurin + OSI-027; first compound 0.3162 µM)	relative viability ([4]; first compound 0.0128 µM)	relative viability ([4]; first compound 0.04048 µM)	relative viability ([4]; first compound 0.128 µM)	relative viability ([4]; first compound 1.28 µM)
PC-3 [JPC-3]	0.444	0.444	0.431	0.462	0.94	0.823	0.827	0.819	0.588	0.621	0.529	0.676	0.718	0.579	0.78	0.806	0.654	0.877	0.834	0.76
LC-2-ad	0.988	0.817	0.847	0.961	1.09	1.12	1.06	1.01	0.543	0.508	0.502	0.511	0.792	0.791	0.898	0.847	0.86	0.846	0.789	0.646
CAL-12T	0.615	0.686	0.659	0.384	1.11	0.943	0.938	0.972	0.485	0.277	0.459	0.24	0.779	0.475	0.531	0.307	0.675	0.7	0.49	0.581
RERF-LC-KJ	0.911	0.915	0.849	0.857	1.16	1.21	1.13	1.07	1.08	1.19	1.07	0.972	0.622	0.614	0.673	0.663	0.911	0.949	0.981	0.749
BEN	0.588	0.646	0.878	0.401	0.667	0.765	0.824	0.53	0.485	0.466	0.435	0.457	0.324	0.273	0.267	0.32	0.532	0.729	0.591	0.671
EMC-BAC-2	0.909	0.935	0.842	0.801	1.03	1.12	1.04	1.12	0.551	0.582	0.528	0.514	0.346	0.31	0.336	0.218	1.13	1.28	1.09	1.09
LU99A	1.11	1.1	1.12	0.904	1.34	1.19	1.04	1.3	0.419	0.435	0.389	0.377	0.279	0.309	0.258	0.277	0.327	0.404	0.352	0.35
ABC-1	1.26	1.17	1.04	0.891	0.212	0.32	0.26	0.3	0.646	0.84	0.391	0.469	0.488	0.536	0.574	0.521	0.658	0.759	0.697	0.728
